According to a melting point compilation (Tetko et al.; mined from patent text by program, amines drawn as free bases though some values may be those of a salt):

Structure (SMILES)	melting point [°C]
O=C(O)c1cncn1C(c1ccccc1)c1ccccc1	216
Cc1c(F)c(F)cc2c1c(=O)c(C(=O)O)cn2C1CC1	294 to 298
N#CC(=Cc1ccc(O)c(O)c1)C(=O)Nc1ccc(Cl)cc1	290
CC/C=C/CNc1cccc(-c2ccnc3c(C(=O)c4cccs4)cnn23)c1	72 to 75
CC(C)COc1ccccc1-c1ncc(-c2nnn[nH]2)c(=O)[nH]1	230 to 231
O=C1CC2CCc3cc(O)ccc3C2=NN1c1ccccn1 (stereo not drawn)	193 to 194
NC(=O)c1c(N)cccc1OCc1ccccc1	158 to 160
CN(C)C(=O)C1CCc2c([nH]c3ccc(Cl)cc23)C1 (stereo not drawn)	176 to 177
O=C(NCc1ccccc1)Nc1ccc(N2CC(c3ccccc3)CC2=O)cn1 (stereo not drawn)	172 to 173
O=Cc1c(Cl)[nH]c2ccccc12	227
CCOC(=O)c1cc(CC)sc1Nc1cc(F)ccc1[N+](=O)[O-]	87 to 88
CCCCCN(CCC12CC3CC(CC(C3)C1)C2)C(=O)NCC(CC)Cc1ccncc1 (stereo not drawn)	72 to 77
COC(=O)c1cc(N)nc(-c2ccc(Cl)c(F)c2F)n1	192 to 195
CCn1cc(C(=O)O)c(=O)c2cc(F)c(-n3ccnc3)c(F)c21	283 to 288
Cn1c([N+](=O)[O-])cnc1C1=NO[C@@H]2CCCCCCCCCC[C@@H]12 (relative stereo)	121 to 122
CCCc1c(OCC(O)COc2ccc3c(C)c(CC(=O)O)c(=O)oc3c2)ccc(C(C)=O)c1O (stereo not drawn)	130
COC(=O)CC(=O)C[C@@H]1[C@@H](N2C(=O)c3ccccc3C2=O)C(=O)N1C(=O)C(=O)OC	130 to 132
COc1ccc(CC2Cc3cc(C)cnc3C(O)C2)cc1 (single isomer, unassigned; (+))	132 to 134
CNC(=N)Nc1nnc(-c2ccccc2C(F)(F)F)s1	160 to 162
O=C(Nc1ccc2oc3c(c2c1)CCCC3)c1ccccc1	178 to 180
Cc1c(C)c2c(c(C)c1N)CC(C)(CN1CCN(C(=O)C(c3ccccc3)c3ccccc3)CC1)O2 (stereo not drawn)	113 to 115
CC(C)c1cccc(C(C)C)c1NC(=O)NCC1CCc2ccccc21 (stereo not drawn)	183 to 185
COc1nc(C)nc(NC(=O)NS(=O)(=O)c2ccccc2OCC(Cl)CCl)n1 (stereo not drawn)	117 to 118

Structure (SMILES)	melting point [°C]
CC1(C)C(=O)N(Cc2ccccc2)C(=O)N1CC#CI	83 to 85
NC(=O)CCCCCN1CCN(c2csc3cc(F)ccc23)CC1	141 to 142
CN(C)c1ccc2c(c1)C(=O)CC(c1cccc(O)c1)=N2	342 to 344
Clc1cc(NCCc2ccccc2)c2ccccc2n1	132 to 133
COC(=O)[C@H]1C=C(C2CCCCC2)OC(=O)[C@H]1Cc1ccccc1	87 to 89
O=C1C[C@@H]2O[C@@H](CS(=O)(=O)c3ccccc3)CN12 (racemic)	144 to 146
CCCn1c(=O)c2nc(C(=O)O)cn2c2ccccc21	232 to 234
O=C(O)/C=C/c1cc([N+](=O)[O-])ccc1O	265 to 267
CC(=O)NC12CCC(CC1)C2(C)C	133 to 134
COc1ccc(C=NO)cc1OCCCCCc1ccccc1	65 to 67
C[Si](C)(C)/C=C/c1c(N)nc(-c2ccc(Cl)c(F)c2F)nc1C(=O)O	155 to 157
CC(=O)Nc1cc(N(C)C)ccc1C(=O)c1ccccc1C(=O)O	174 to 181
c1ccc(OCCn2c(CC3CC3)nc3cnc4cc(-c5ccccc5)ccc4c32)cc1	175 to 176
CCCCCN1C(=O)C(CCC(=O)OC)(NC(=O)c2ccc(Cl)c(Cl)c2)c2ccccc21 (stereo not drawn)	84 to 114
COc1nc(C)cnc1NS(=O)(=O)c1cccnc1-c1ccc(N(C)C)cc1	183 to 184
CCOC(=O)C(Cl)=Cc1cc(NC(=O)CC(C)CC(=O)O)ccc1Cl (stereo not drawn)	82 to 84
O=c1[nH]c2ccncc2c(=O)o1	180
O=C(O)Cc1ccc2ccn(Cc3ccccc3)c2c1	109 to 111
COc1cc2c(cc1OC)C(C(C#N)SCCO)=NCC2 (stereo not drawn)	138 to 140
CS(=O)(=O)Nc1cc(Cl)c(Cl)cc1Cl	144 to 145
CCCCCn1c2c(c3ccc(OC)cc31)CN(S(=O)(=O)c1cccc3c(N(C)C)cccc13)CC2	71 to 72
CCc1nnc2c(NC3CCCCC3)nc3ccccc3n12	217 to 220

Other lines, results leading:

melting point [°C]	Structure (SMILES)
62 to 64	CCOC(=O)CCc1cc(CCC(=O)O)cc(Cc2cccnc2)c1
163	FC(F)(F)c1ccc(-c2cc(C(F)(F)F)n3ncc(-c4cccnc4)c3n2)cc1
171 to 172	O=C1CC(NCCCOc2cccc(CN3CCCCC3)c2)=Nc2ccccc21
81 to 82	O=C(NN=CC(Cl)(Cl)Cl)c1cccc(Oc2cccc(C(F)(F)F)c2)n1
155 to 157	O=S(=O)(Nc1onc2c1CCCC2)c1ccccc1
82	C=Cc1ccc(NS(C)(=O)=O)c(F)c1
78 to 80	Cc1c(C)c2c(c(C)c1OCCCc1ccccc1)C(c1ccc(C(C)C)cc1)C(C)(C)O2 (stereo not drawn)
274 to 276	CC(C)(C)c1ccc(C(=O)Nc2cn3cc(-n4cncn4)ccc3n2)cc1
130	O=C(O)CSC(F)(F)F
198	Cc1nc2n(C)ccn2c(=O)c1CCCl
98 to 102	OC1CSC(Oc2cc(-c3ccncc3)cnc2F)C(O)C1O (stereo not drawn)
136 to 139	CCOC(=O)C(C)c1ccc(NC2OC(=O)c3ccccc32)cc1 (stereo not drawn)
125 to 127	Cc1ncc(CSC(=O)c2cccc(C(=O)SCc3cnc(C)c4c3COC(C)(C)O4)c2)c2c1OC(C)(C)OC2
184 to 186	Cc1ccc(C(N)=O)c(C)c1
136 to 140	Cn1cc(C(=O)Nc2ccccc2-c2ccc(Cl)cc2Cl)c(C(F)(F)F)n1
156 to 158	Oc1ccc(N2CCSCC2)cc1
265 to 266	CCCn1c(=O)c2[nH]c(/C=C/c3cccc(F)c3)nc2n(CCC)c1=O
242 to 244	CN(c1nc(-c2cc3ccccc3[nH]c2=O)cs1)S(=O)(=O)c1ccccc1
189	CC(C)C(=O)NCc1cccc(-c2nc(=O)c3ccccc3s2)n1
120	CC(=O)N(C)c1c(N(C)C)cc(C(=O)CS(C)(=O)=O)cc1N(C)C

melting point [°C]	Structure (SMILES)
103 to 106	COC(=O)C1CCCn2c(=O)n(CC(=O)OCc3ccccc3)c(=O)n21 (stereo not drawn)
101	CCC1(CC)CC(c2ccc(F)cc2)=C(c2ccc(S(N)(=O)=O)cc2)C1
190	CCOC(=O)c1c(C)nn(C)c1CS(=O)(=O)NC(=O)Nc1nc(OC)cc(OC)n1
172 to 173	Cc1cc(=O)c2ccc(OCCCN3CCC(NC(=O)Cc4ccccc4)CC3)cc2o1
240	Cc1c(Br)c2ccccn2c1C(=O)c1cc(Cl)c(O)c(Cl)c1
279 to 281	COc1c(O)c(OC)c2c(=O)cc(-c3ccc(O)c(O)c3)oc2c1OC
179 to 181	O=C1N(CC(O)CO)c2ccccc2C12COc1cc3c(cc12)OCCO3 (stereo not drawn)
116 to 124	CCC(=O)Nc1ccnn1-c1ncc(Cl)cc1Cl
178 to 181	COC(=O)c1cc2cc(-c3ccc4ccc(Cl)cc4n3)ccc2o1
262 to 264	O=S(=O)(Nc1ncnc(Cl)c1-c1ccc(C(F)(F)F)cc1)c1ccc(Cl)cc1
162 to 163	Cc1cccc2nc(C(C)(C)NC(=O)COC3c4ccccc4-c4ccccc43)oc(=O)c12
143	CCCC(CCC)N1CCc2c(C(=O)O)cc(F)cc2C1=O
109 to 110	CC1CCC(NS(N)(=O)=O)CC1 (stereo not drawn)
170 to 171	COc1cccc2c1CN(Nc1ccncc1)CC2
155 to 157	CCCCNC(=S)Nc1cccc(-c2ccnc3c(C(=O)c4cccs4)cnn23)c1
255 to 256	Cc1ccc(-c2ccc3c(c2)C=C(C(=O)O)CCO3)cc1
146	C1=Cn2cnnc2Cc2ccsc21
165 to 166	Cn1cc(-c2ccnc(Cl)n2)c(-c2ccc(Cl)cc2Cl)n1
163 to 164	O=C(Nc1cc2ncc(CN3CCCC3)cc2cc1F)c1ccc(-c2ccccc2)cc1F
136 to 138	CCOC(=O)CCc1cccc(C2COc3c(C)c(C)c(NC(=O)CC(C)(C)C)c(C)c32)c1 (stereo not drawn)

melting point [°C]	Structure (SMILES)
196 to 197	c1ccc(N2CCN(Cc3n[nH]c4ccccc34)CC2)cc1
255 to 258	CN(C)CCCOc1cc2oc3cc(-c4ccccc4Cl)c4c(c3c2cc1O)C(=O)NC4=O
158 to 159	Cc1cc(N)nc(CCCCNC(=O)c2c(O)cccc2O)c1
145 to 150	CN(C)S(=O)(=O)Cc1ccccc1S(N)(=O)=O
91 to 92.5	CC(=O)N1CCCSC1=C[N+](=O)[O-]
90	CCOC(=O)C(Br)C(=O)Nc1ccccc1 (racemic)
124 to 125	CN1CCN(C2=Nc3ccncc3Oc3ccccc32)CC1
207 to 209	O=C1COc2cc(SCc3ccc(O)cc3)ccc2N1
66 to 67	Brc1cnc(SCc2ccccc2)nc1SCc1ccccc1
209 to 210	CCOc1nc2c(C(=O)OC)sc(C)c2[nH]1
246 to 249	CCCCCc1cc2c(nc(O)n2CC2CCNCC2)c(N)n1
150 to 152	COc1cc(OC)cc(OC(=O)NC(=O)C(c2ccccc2)c2ccccc2)c1
243 to 244	COc1cc2nc(N3CCc4ccc(NC(C)=O)cc4C3)nc(N)c2cc1OC
164 to 168	CCNC(=NS(=O)(=O)c1cccc(C#N)c1)N1CC(CC)C=N1 (stereo not drawn)
146 to 148	CCC(c1cc2c(-c3ccc(C(F)(F)F)n(C)c3=O)c(F)cc(Cl)c2o1)S(C)(=O)=O (stereo not drawn)
73.2	COc1nc(N)ccc1C(=O)CCC1CCN(CC2CCCCC2)CC1
131 to 135	COc1ccc(NC(N)=S)nc1
81 to 82	CC(=O)c1ccc(Nc2ccccc2C(C)=C(Cl)Cl)cc1
